Laboratory results reported in ChEMBL document CHEMBL1141910, “Combinatorial approaches towards the discovery of new tryptase inhibitors” (Bioorg Med Chem Lett, 2005).

Target: T1, Tryptase beta-1 (Homo sapiens, UniProt Q15661)
Assay: Inhibitory concentration against tryptase
Target sequence in this assay (Q15661 whole entry): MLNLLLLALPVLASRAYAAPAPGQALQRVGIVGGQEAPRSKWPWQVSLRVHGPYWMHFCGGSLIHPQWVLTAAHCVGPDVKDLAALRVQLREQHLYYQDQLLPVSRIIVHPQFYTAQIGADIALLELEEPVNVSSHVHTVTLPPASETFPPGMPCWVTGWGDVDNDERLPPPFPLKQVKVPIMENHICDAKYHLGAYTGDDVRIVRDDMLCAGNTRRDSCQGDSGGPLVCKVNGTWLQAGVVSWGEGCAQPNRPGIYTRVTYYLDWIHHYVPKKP

Compared with `N=C(N)NCCCCC(=O)NCCCC[C@@H]1NC(=O)[C@H](CCCCNC(=O)[C@H](CCCNC(=N)N)NC(=O)OCc2ccccc2)NC1=O`, `N=C(N)NCCCC(=O)NCCCC[C@@H]1NC(=O)[C@H](CCCCNC(=O)[C@H](CCCNC(=N)N)NC(=O)OCc2ccccc2)NC1=O` is 2.6-fold lower in IC50: 5.7 µM for the first, 2.2 µM for the second.

`N=C(N)NCCC(=O)NCCCC[C@@H]1NC(=O)[C@H](CC(=O)Nc2cccc(C(=N)N)c2)NC1=O` and `N=C(N)NCCCC(=O)NCCCC[C@@H]1NC(=O)[C@H](CC(=O)Nc2cccc(C(=N)N)c2)NC1=O` are within 1.5-fold of each other in IC50: 23.6 µM for the first, 21.3 µM for the second.

Compared with `N=C(N)NCC(=O)NCCCC[C@@H]1NC(=O)[C@H](CC(=O)Nc2cccc(C(=N)N)c2)NC1=O`, `CN(CCC(=O)NCCCC[C@@H]1NC(=O)[C@H](CC(=O)Nc2cccc(C(=N)N)c2)NC1=O)C(=N)N` is 1.6-fold lower in IC50: 19.9 µM for the first, 12.8 µM for the second.

Compared with `N=C(N)NCCC[C@H](NC(=O)OCc1ccccc1)C(=O)NCCCC[C@@H]1NC(=O)[C@H](CCCCNC(=O)[C@H](CCCN=C(N)N)NC(=O)OCc2ccccc2)NC1=O`, `N=C(N)NCCCC(=O)NCCCC[C@@H]1NC(=O)[C@H](CCCCNC(=O)[C@H](CCCNC(=N)N)NC(=O)c2ccccc2)NC1=O` is 1.7-fold lower in IC50: 4.1 µM for the first, 2.4 µM for the second.

Going from `N=C(N)NCCCCC(=O)NCCCC[C@@H]1NC(=O)[C@H](CCCCNC(=O)[C@H](CCCNC(=N)N)NC(=O)c2ccccc2)NC1=O` to `N=C(N)NCCCC(=O)NCCCC[C@@H]1NC(=O)[C@H](CCCCNC(=O)CCCNC(=N)N)NC1=O`, the IC50 falls from 9.3 µM to 4.7 µM (2-fold).

`NC(N)=Nc1ccc(C(=O)NCCCC[C@@H]2NC(=O)[C@H](CCCCNC(=O)CN3CCN=C3N)NC2=O)cc1` and `CN(CCC(=O)NCCCC[C@@H]1NC(=O)[C@H](CCCCNC(=O)CCNC(=N)N)NC1=O)C(=N)N` are within 1.5-fold of each other in IC50: 4.4 µM for the first, 5.9 µM for the second.

`N=C(N)NCCCC(NC(=O)OCC1c2ccccc2-c2ccccc21)C(=O)NCCCC[C@@H]1NC(=O)[C@H](CC(=O)Nc2cccc(C(=N)N)c2)NC1=O` (some centres not stated) and `N=C(N)NCCC[C@H](NC(=O)c1ccccc1)C(=O)NCCCC[C@@H]1NC(=O)[C@H](CC(=O)Nc2cccc(C(=N)N)c2)NC1=O` are within 1.5-fold of each other in IC50: 9.09 µM for the first, 12.4 µM for the second.

Target: T1, Tryptase beta-1
Assay: Percentage inhibition against tryptase at 10 uM
Target sequence in this assay (Q15661 31-275 limits assumed): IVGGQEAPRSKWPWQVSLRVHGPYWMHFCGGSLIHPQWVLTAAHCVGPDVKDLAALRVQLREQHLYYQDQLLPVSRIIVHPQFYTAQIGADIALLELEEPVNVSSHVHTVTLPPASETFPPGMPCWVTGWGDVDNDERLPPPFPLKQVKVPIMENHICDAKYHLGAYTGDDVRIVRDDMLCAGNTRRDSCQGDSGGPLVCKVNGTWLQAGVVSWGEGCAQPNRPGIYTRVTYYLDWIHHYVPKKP

First: CN(CCC(=O)NCCCC[C@@H]1NC(=O)[C@H](CCCCNC(=O)CCCN=C(N)N)NC1=O)C(=N)N
Second: CN(CCC(=O)NCCCC[C@@H]1NC(=O)[C@H](CCCCNC(=O)CCN=C(N)N)NC1=O)C(=N)N
The inhibition of the first is lower: 36.7% for the first, 51.7% for the second.

First: N=C(N)NCCC(=O)O
Second: N=C(N)NCCCC(=O)O
The inhibition of the first is lower: -6% for the first, 8.92% for the second.

First: N=C(N)NCCCCC(=O)NCCCC[C@@H]1NC(=O)[C@H](CCCCNC(=O)[C@H](CCCNC(=N)N)NC(=O)OCc2ccccc2)NC1=O
Second: N=C(N)NCCCC(=O)NCCCC[C@@H]1NC(=O)[C@H](CCCCNC(=O)[C@H](CCCNC(=N)N)NC(=O)OCc2ccccc2)NC1=O
The inhibition of the first is lower: 68% for the first, 83% for the second.

First: N=C(N)NCCC[C@H](NC(=O)c1ccccc1)C(=O)NCCCC[C@@H]1NC(=O)[C@H](CC(=O)Nc2ccc(C(=N)N)cc2)NC1=O
Second: N=C(N)NCCC[C@H](NC(=O)c1ccccc1)C(=O)NCCCC[C@@H]1NC(=O)[C@H](CC(=O)Nc2cccc(C(=N)N)c2)NC1=O
The inhibition of the first is lower: 45% for the first, 70.6% for the second.

Going from `CN(CCC(=O)O)C(=N)N` to `N=C(N)NCCCCC(=O)O`, the inhibition falls from 2.55% to 0.23%.

First: N=C(N)NCCC(=O)NCCCC[C@@H]1NC(=O)[C@H](CC(=O)Nc2cccc(C(=N)N)c2)NC1=O
Second: N=C(N)NCCCC(=O)NCCCC[C@@H]1NC(=O)[C@H](CC(=O)Nc2cccc(C(=N)N)c2)NC1=O
The inhibition of the first is higher: 76.5% for the first, 54.4% for the second.

First: N=C(N)Nc1ccc(C(=O)NCCCC[C@@H]2NC(=O)[C@H](CC(=O)Nc3ccc(C(=N)N)cc3)NC2=O)cc1
Second: N=C(N)Nc1ccc(C(=O)NCCCC[C@@H]2NC(=O)[C@H](CC(=O)Nc3cccc(C(=N)N)c3)NC2=O)cc1
The inhibition of the first is higher: 73.9% for the first, 47.3% for the second.

First: N=C(N)NCCC[C@H](NC(=O)c1ccccc1)C(=O)NCCCC[C@@H]1NC(=O)[C@H](CCCCNC(=O)CCNC(=N)N)NC1=O
Second: N=C(N)NCCCC(=O)NCCCC[C@@H]1NC(=O)[C@H](CCCCNC(=O)[C@H](CCCNC(=N)N)NC(=O)c2ccccc2)NC1=O
The inhibition of the first is lower: 31.2% for the first, 80.5% for the second.

First: N=C(N)NCCCC(NC(=O)c1ccccc1)C(=O)O (configuration not stated)
Second: N=C(N)NCCCC(NC(=O)OCc1ccccc1)C(=O)O (configuration not stated)
The inhibition of the first is higher: 7.53% for the first, 1.97% for the second.

Compared with `N=C(N)c1cccc(NC(=O)C[C@@H]2NC(=O)[C@H](CCCCNC(=O)CN3CCN=C3N)NC2=O)c1`, `N=C(N)NCC(=O)NCCCC[C@@H]1NC(=O)[C@H](CC(=O)Nc2cccc(C(=N)N)c2)NC1=O` is higher in inhibition: 47.7% for the first, 58.6% for the second.

First: N=C(N)Nc1ccc(C(=O)O)cc1
Second: N=C(N)c1ccc(C(=O)O)cc1
The inhibition of the first is higher: 38.8% for the first, 2.9% for the second.

Compared with `NC1=NCCN1CC(=O)O`, `N=C(N)NCC(=O)O` is lower in inhibition: 3.24% for the first, -3% for the second.

First: N=C(N)NCCCC(NC(=O)OCC1c2ccccc2-c2ccccc21)C(=O)NCCCC[C@@H]1NC(=O)[C@H](CC(=O)/N=C(\N)NNCCCc2ccccc2)NC1=O (some centres not stated)
Second: N=C(N)NCCCC(NC(=O)OCC1c2ccccc2-c2ccccc21)C(=O)NCCCC[C@@H]1NC(=O)[C@H](CC(=O)Nc2cccc(C(=N)N)c2)NC1=O (some centres not stated)
The inhibition of the first is lower: 49.3% for the first, 62.6% for the second.

Going from `N=C(N)NCCC[C@H](NC(=O)OCc1ccccc1)C(=O)NCCCC[C@@H]1NC(=O)[C@H](CCCCNC(=O)[C@H](CCCN=C(N)N)NC(=O)OCc2ccccc2)NC1=O` to `N=C(N)NCCC[C@H](NC(=O)OCc1ccccc1)C(=O)NCCCC[C@@H]1NC(=O)[C@H](CCCCNC(=O)[C@H](CCCN=C(N)N)NC(=O)c2ccccc2)NC1=O`, the inhibition falls from 48.5% to 43.3%.

Going from `N=C(N)NCCC[C@H](N)C(=O)O` to `N=C(N)NCCCC(=O)NCCCC[C@@H]1NC(=O)[C@H](CCCCNC(=O)CCCNC(=N)N)NC1=O`, the inhibition rises from 3.71% to 59.3%.

Compared with `N=C(N)NCCCCC(=O)NCCCC[C@@H]1NC(=O)[C@H](CCCCNC(=O)[C@H](CCCNC(=N)N)NC(=O)c2ccccc2)NC1=O`, `N=C(N)NCCCCC(=O)NCCCC[C@@H]1NC(=O)[C@H](CCCCNC(=O)CCCNC(=N)N)NC1=O` is lower in inhibition: 47.5% for the first, 44.4% for the second.

Going from `N=C(N)NNC(=O)C[C@@H]1NC(=O)[C@H](CCCCNC(=O)c2ccc(NC(=N)N)cc2)NC1=O` to `N=C(N)Nc1ccc(C(=O)NCCCC[C@@H]2NC(=O)[C@H](CCCCNC(=O)CN3CCN=C3N)NC2=O)cc1`, the inhibition rises from 42.5% to 61.1%.

Compared with `N=C(N)NCCCC(NC(=O)OCC1c2ccccc2-c2ccccc21)C(=O)NCCCC[C@@H]1NC(=O)[C@H](CC(=O)Nc2ccc(C(=N)N)cc2)NC1=O` (some centres not stated), `N=C(N)NCCC[C@H](NC(=O)OCc1ccccc1)C(=O)NCCCC[C@@H]1NC(=O)[C@H](CC(=O)Nc2ccc(C(=N)N)cc2)NC1=O` is lower in inhibition: 64.5% for the first, 41.6% for the second.

Compared with `CN(CCC(=O)NCCCC[C@@H]1NC(=O)[C@H](CC(=O)Nc2cccc(C(=N)N)c2)NC1=O)C(=N)N`, `N=C(N)NCCC[C@H](NC(=O)OCc1ccccc1)C(=O)NCCCC[C@@H]1NC(=O)[C@H](CC(=O)Nc2cccc(C(=N)N)c2)NC1=O` is lower in inhibition: 62.6% for the first, 59% for the second.
